Experimental data taken from US20260109674A1, “ALLOSTERIC MODULATION OF MUSCARINIC ACETYLCHOLINE RECEPTOR EFFICACY” (The University of Toledo, priority 2022, published 2026).
Structures can show the parent of a compound that is named as a salt. Where two headings read alike, the source gives them in different places. Marks after values point to notes of the source that are not given here.

Key:
[1] = target: T1, M1 muscarinic receptors expressed in CHO cells (Homo sapiens, UniProt P11229); assay: [3H]-arachidonic acid release screen with and without ACh and modulator; format: cell-based; conditions: for Ratio of response of ACh with modulator to response of ACh alone, 0.1 μM ACh / Ratio of response of ACh with modulator to response of ACh alone, 100 μM ACh / Stimulation of [3H]AA release, No ACh (fraction of stimulation above the control): 10 μM modulator, Table 1; for Modulation of ACh activity (in words): [3H]AA release; for Modulation of ACh activity (in words) / Intrinsic agonist activity (in words): modulator 10 μM; for Intrinsic agonist activity (in words): without ACh
T1 construct: expressed in transfected cells; host or cells: CHO (CHO-hM1, stably transfected)
T1 sequence (P11229 1-460): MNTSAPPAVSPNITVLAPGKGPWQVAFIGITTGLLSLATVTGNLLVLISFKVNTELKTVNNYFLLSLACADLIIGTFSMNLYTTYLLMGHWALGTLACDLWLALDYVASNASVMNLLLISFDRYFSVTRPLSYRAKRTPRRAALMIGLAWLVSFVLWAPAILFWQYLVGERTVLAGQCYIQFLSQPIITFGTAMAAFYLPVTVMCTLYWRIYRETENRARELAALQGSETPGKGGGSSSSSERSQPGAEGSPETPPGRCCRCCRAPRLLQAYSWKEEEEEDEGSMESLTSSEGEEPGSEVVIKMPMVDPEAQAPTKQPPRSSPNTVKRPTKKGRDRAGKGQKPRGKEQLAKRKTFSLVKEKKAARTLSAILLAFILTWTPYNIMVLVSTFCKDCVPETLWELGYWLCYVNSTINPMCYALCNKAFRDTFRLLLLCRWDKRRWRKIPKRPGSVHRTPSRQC
Experimental: CHO cells expressing human M1 muscarinic receptors were cultured at 37° C. in a 5% CO2 atmosphere in F12 medium supplemented with 5% fetal bovine serum, 100 units/mL penicillin, and 100 μg/mL streptomycin.
(§1) Measurement of [^3H]AA release was performed. Stably transfected CHO-hM1 or CHO-hM3 cells were seeded on 24-well plates (Greiner Bio-One GmbH, Frickenhausen, Germany) at a density of 5.0×10^4 cells/well in 0.5 ml of F-12 medium. Cells were incubated until they attached (approximately 3 h), followed by the addition of [^3H]AA to a final concentration of 0.05 μCi of [^3H]AA per well. The cells were then grown for 16 to 20 h before the assay was performed. [^3H]AA release was measured in Eagle's basal medium with 20 mM HEPES and 2 mg/ml fatty acid-free bovine serum albumin (EM-BSA). Cells were rinsed twice with EM-BSA, followed by the addition of EM-BSA media containing experimental agents and incubated for 1 h at 37° C. The assay was terminated by aspiration of the media, and the amount of [^3H]AA released was determined by liquid scintillation counting (Beckman-Coulter LS6500).
For some assays, pretreatment with phenoxybenzamine (POB) was employed, as indicated, to reduce the number of available receptors per cell. Stock POB was made up at 10 mM in ethanol and stored at −20° C. Each well was pretreated with 0.5 ml of the appropriate concentration in PBS with 1 mM CaCl2 and 1 mM MgCl2 (PBS++) for 30 min at 37° C., followed by 5 washes with PBS++. After pretreatment, the normal protocol was followed as above.
(§2) Tabulated [^3H]AA release data are represented as a fraction of maximal release in the presence of 100 μM ACh or as the fraction of release elicited by the appropriate concentration of ACh alone, as indicated dose-response curves were normalized to the maximal response of ACh without allosteric ligand. Some response curves were analyzed using the empirical four-parameter equation: […]
Disintegration per minute (DPM) values for a single compound were obtained in triplicate, and each compound was evaluated on three separate 24-well plates. The mean values for each condition from each of the three 24-well plates were used for the statistical analysis. The baseline mean was subtracted from each value, then normalized to the mean response produced by 100 μM ACh (set at 1.0). Statistical analyses were completed on the normalized values via one-way repeated measures ANOVA with Tukey's post hoc test. Statistically significant differences are noted as follows: *, p<0.05; **, p<0.01; ***, p<0.001.

[2] = target: T1, M1 muscarinic receptors expressed in CHO cells; assay: Full ACh dose-response curves of [3H]AA release fitted to the allosteric operational model; format: cell-based; conditions: for Intrinsic Efficacy-B, τB / Activation cooperativity, A-B, β / Binding cooperativity, A-B, α: allosteric operational model; for Intrinsic Efficacy-B, τB: Em set to 2.0; for Activation cooperativity, A-B, β / Binding cooperativity, A-B, α: with ACh; for Effect on ACh potency and efficacy in full ACh dose-response curves (in words): modulator 10 μM
Experimental: as §1, §2
where X is the log of the concentration of the ligand used, Y is the amount of response, C50 is the concentration of the ligand that produces 50% of the maximal effect, Top and Bottom are the top and bottom plateaus of the curve, respectively, and n is related to the Hill slope for the curve. In some cases, families of response curves were analyzed according to the allosteric operational model:
where EM is the maximal response; A is the concentration of ACh; B is the concentration of the allosteric ligand; τA and τB represent the intrinsic efficacies of A and B, respectively; KA and KB are the equilibrium dissociation constants of A and B, respectively; and α and β represent the cooperativities between A and B in terms of binding and activation, respectively. Curve-fitting was carried out with GraphPad Prism, version 5.0 or 6.0 (San Diego CA).

[3] = system: wild-type zebrafish larvae; assay: Maximum tolerated concentration (MTC) determination in zebrafish larvae; format: in vivo, Danio rerio; conditions: for Maximum Tolerated Concentration: after 24-hour exposure, Table 3
Experimental: Determination of maximum tolerated concentration was completed by placing 5 days post fertilization (dpf) wild-type zebrafish larvae in a 24 well plate at 6 fish per well, and one compound concentration per well. […] Death was determined by the absence of heartbeat. Additional endpoints were used to assess toxicity at non-lethal concentrations such as startle capacity (poke stimulus), abnormalities in swimming behavior (loss of dorsoventral balance), and gross morphological deformities (bent body). […] The MTC determination was used to select three doses of each compound (low, medium, high dose) to be used in behavioral assays.

[4] = system: wild-type zebrafish larvae; assay: General locomotor assay in zebrafish larvae (locomotor activity, repetitive behaviors); format: in vivo, Danio rerio; conditions: for Effect on locomotor activity, angular velocity and turn angle (in words): spontaneous swimming period
Experimental: Five days post fertilization (dpf) zebrafish larvae were exposed to a range of nonlethal concentrations of the compounds in a 24-well plate with appropriate controls. The movement of each larval zebrafish was monitored with the Noldus behavior recording system (Noldus Information Technology, Leesburg VA) and quantified using EthoVision® XT 15 software (Noldus Information Technology, Leesburg VA). The plate was immediately placed in the incubator for a 30-minute exposure period. After 30 minutes, the plate was transferred to the Noldus system and swimming behavior was recorded in 100% light for 30 minutes to measure spontaneous swimming behavior. The light was switched off for 10 minutes (dark period) and then switched on for 10 minutes (light period), which was then repeated for two additional cycles. In total, the larvae were exposed to three cycles of alternating 10-minute dark and light periods (100% darkness-to-100% light). […]
All data for exposure and the behavioral end points were analyzed by one-way ANOVA (factor: drug conc) followed by a Dunnett's multiple comparisons test for post hoc significance between drug concentration and control group. Statistically significant differences are noted as follows: *, p<0.05; **, p<0.01; ***, p<0.001.

[5] = best-fit parameter, read-out: Affinity-B, KB (converted)
[6] = Table 3, test concentration not given, N = 12

Structure (SMILES) | Ratio of response of ACh with modulator to response of ACh alone, 0.1 μM ACh [1] | Ratio of response of ACh with modulator to response of ACh alone, 100 μM ACh [1] | Stimulation of [3H]AA release, No ACh (fraction of stimulation above the control) [1] | Modulation of ACh activity (in words) [1] | Intrinsic agonist activity (in words) [1] | Intrinsic Efficacy-B, τB ([2]; best-fit parameter) | Activation cooperativity, A-B, β ([2]; best-fit parameter) | Binding cooperativity, A-B, α ([2]; best-fit parameter) | Kb [2, 5] [nM] | Effect on ACh potency and efficacy in full ACh dose-response curves (in words) [2] | Maximum Tolerated Concentration [3] [µM] | Effect on locomotor activity, angular velocity and turn angle (in words) [4] | Affinity-B, KB ([2]; best-fit parameter, values given are logarithms (cf. logKA in footnote)) | Kb ([2]; read-out: affinity for M1 muscarinic receptors (KB)) [nM] | Signs of toxicity (in words) ([3]; concentrations up to 30 μM, the highest concentration tested) | Concentration with significant effects on locomotor activity and repetitive behaviors ([4]; compared with BQCA) [µM] | Angular Velocity [4, 6] | Total Distance Moved [4, 6] | Variance of Turn Angle [4, 6]
CCN(CC)CCOc1ccc(CN2C(=O)C(=O)c3ccccc32)cc1 [Compound 7, 1-(4-(2-(diethylamino)ethoxy)benzyl)indoline-2,3-dione] | 0.08 ± 0.02 | 1.11 ± 0.06 | 0.02 ± 0.01 | primarily decreased potency and slightly enhanced the efficacy of ACh activity | lacked intrinsic activity at the 10 μM concentration | 0.0317 ± 0.0205 | 0.991 ± 0.120 | 0.180 ± 0.0855 | 631 | decreased ACh potency with little impact on ACh efficacy | 10 | did not significantly alter locomotor activity, angular velocity, and turn angle |  |  |  |  |  |  | 
COc1c(I)cc(CN2C(=O)C(=O)c3ccccc32)cc1I [Compound 8a, 1-(3,5-diiodo-4-methoxybenzyl)indoline-2,3-dione] | 2.64 ± 0.10 | 1.62 ± 0.06 | 0.24 ± 0.04 | significant enhancement of ACh activity | lacked intrinsic activity at the 10 μM concentration | 0.174 ± 0.0289 | 3.26 ± 0.431 | 0.689 ± 0.241 |  | dramatically enhanced ACh efficacy | 30 |  | −6.26 ± 0.152 | 589 | did not produce any signs of toxicity | 1 |  |  | 
COc1c(Br)cc(CN2C(=O)C(=O)c3ccccc32)cc1Br [Compound 8c, 1-(3,5-dibromo-4-methoxybenzyl)indoline-2,3-dione] | 2.15 ± 0.05 | 1.58 ± 0.01 | 0.23 ± 0.00 |  |  | 0.328 ± 0.0555 | 3.89 ± 0.610 | 0.980 ± 0.388 | 2950 | dramatically enhanced ACh efficacy | 30 |  |  |  |  |  |  |  | 
COc1cccc(CN2C(=O)C(=O)c3ccccc32)c1 [Compound 8j, 1-(3-methoxybenzyl)indoline-2,3-dione] | 1.06 ± 0.15 | 0.96 ± 0.10 | 0.02 ± 0.02 |  |  |  |  |  |  | enhances ACh potency |  | significantly decreased locomotor activity and increased angular velocity and absolute turn angle |  |  |  |  |  |  | 
CCN(CC)CCOc1c(Br)cc(CN2C(=O)C(=O)c3ccccc32)cc1Br [Compound 8l, 1-(3,5-dibromo-4-(2-(diethylamino)ethoxy)benzyl)indoline-2,3-dione hydrochloride] | 0.19 ± 0.06 | 0.87 ± 0.06 | 0.04 ± 0.00 | results only in a decrease in ACh activity |  |  |  |  |  | decreased ACh potency with little impact on ACh efficacy | 10 |  |  |  |  |  | 184.7 ± 17.0*** % of control | 33.5 ± 4.4** % of control | 166.1 ± 12.5*** % of control
